Laboratory results published in US4399132A, “7-Beta-[alpha-syn-methoxyimino-alpha-(2-aminothiazol-4-yl)-aceta mido]-3-[(1,2,3-thiadiazol-5-ylthio)methyl]-3-cephem-4-carboxylic acid and C1 -C6 alkyl derivatives thereof” (American Cyanamid Company, priority 1981, dated 1983).
Where two headings read alike, the source gives them in different places.

Assays:
[1] = system: Acinetobacter sp.; assay: Mueller-Hinton agar dilution method (MIC); format: cell-based; conditions: read-out: Minimal Inhibitory Concentration
[2] = system: Klebsiella pneumoniae; assay: Mueller-Hinton agar dilution method (MIC); format: cell-based; conditions: for MIC: Klebsiella pneumoniae
[3] = system: Citrobacter sp.; assay: Mueller-Hinton agar dilution method (MIC); format: cell-based; conditions: read-out: Minimal Inhibitory Concentration
[4] = system: Proteus morganii; assay: Mueller-Hinton agar dilution method (MIC); format: cell-based; conditions: Morganella morganii, read-out: Minimal Inhibitory Concentration
[5] = system: Pseudomonas aeruginosa; assay: Mueller-Hinton agar dilution method (MIC); format: cell-based
[6] = system: Salmonella sp.; assay: Mueller-Hinton agar dilution method (MIC); format: cell-based; conditions: read-out: Minimal Inhibitory Concentration
Description: (§1) The results appear in Tables I, II, and III.

[7] = system: Enterobacter aerogenes; assay: Mueller-Hinton agar dilution method (MIC); format: cell-based; conditions: Klebsiella aerogenes
[8] = system: Enterobacter cloacae; assay: Mueller-Hinton agar dilution method (MIC); format: cell-based
[9] = system: Staphylococcus pyogenes; assay: control of systemic lethal infections in mice; format: in vivo, mice (Charles River Laboratories CD-1 strain female); conditions: Staphylococcus aureus, sc, 168 h; strain C 203; subcutaneous 30 min after i.p. infection; survival at 7 days; three tests pooled; 95% confidence limits (0.08-0.13); read-out: Median Effective Dose (ED50)
Method: (§2) The test employed used Charles River Laboratories CD-1 strain female mice each weighing 20+2 grams. The mice were infected by intraperitoneal injection of sufficient bacteria (see Table 2), contained in either 0.5 ml. of 5% mucin (S. aureus strains) or broth (S. pyogenes or E. coli), to kill 95-100% of untreated mice within 48 hours.
(§3) The mice were treated by subcutaneous injection 30 minutes after infection with the test drug at varying doses contained in 0.5 ml. of 0.2% aqueous agar. Survival ratios seven days after infection were recorded.

[10] = system: Staphylococcus aureus; assay: control of systemic lethal infections in mice; format: in vivo, mice (Charles River Laboratories CD-1 strain female); conditions: sc, 168 h, survival at 7 days, three tests pooled, read-out: Median Effective Dose (ED50)
Method: as §2, §3

[11] = system: Escherichia coli; assay: control of systemic lethal infections in mice; format: in vivo, mice (Charles River Laboratories CD-1 strain female); conditions: sc, 168 h, strain 311, subcutaneous 30 min after i.p. infection, survival at 7 days, three tests pooled, 95% confidence limits (0.28-0.44), read-out: Median Effective Dose (ED50)
Method: as §2, §3

[12] = system: Escherichia coli; assay: Mueller-Hinton agar dilution method (MIC); format: cell-based; conditions: read-out: Minimal Inhibitory Concentration
[13] = system: Proteus rettgeri; assay: Mueller-Hinton agar dilution method (MIC); format: cell-based; conditions: Providencia rettgeri, read-out: Minimal Inhibitory Concentration
[14] = system: Staphylococcus aureus; assay: Mueller-Hinton agar dilution method (MIC); format: cell-based
[15] = system: Salmonella (arizona); assay: Mueller-Hinton agar dilution method (MIC); format: cell-based; conditions: read-out: Minimal Inhibitory Concentration
[16] = system: Providencia stuartti; assay: Mueller-Hinton agar dilution method (MIC); format: cell-based; conditions: read-out: Minimal Inhibitory Concentration
[17] = system: Serratia marcescens; assay: Mueller-Hinton agar dilution method (MIC); format: cell-based; conditions: read-out: Minimal Inhibitory Concentration
[18] = system: Enterococcus sp.; assay: Mueller-Hinton agar dilution method (MIC); format: cell-based; conditions: for MIC: Enterococcus
[19] = system: Klebsiella oxytoca; assay: Mueller-Hinton agar dilution method (MIC); format: cell-based; conditions: read-out: Minimal Inhibitory Concentration
[20] = system: Micrococcus luteus; assay: Mueller-Hinton agar dilution method (MIC); format: cell-based; conditions: read-out: Minimal Inhibitory Concentration
Description: as §1

CO/N=C(\C(=O)N[C@@H]1C(=O)N2C(C(=O)O)=C(CSc3cnns3)CS[C@H]12)c1csc(N)n1 [Compound Ia, 7 beta-[alpha-syn-methoxyimino-alpha-(2-aminothiazol-4-yl)acetamido]-3-[(1,2,3-thiadiazol-5-ylthio)methyl]-3-cephem-4-carboxylic acid]
0.25 µg/mL: MIC ([6]; strain SSC-79-57, Table I) | MIC ([8]; strain K-79-16, Table I, read-out: Minimal Inhibitory Concentration) | MIC ([14]; beta-lactamase negative, strain SSC 79-17, Table II, read-out: Minimal Inhibitory Concentration) | MIC ([14]; beta-lactamase positive, strain SSC 79-27, Table II, read-out: Minimal Inhibitory Concentration) | MIC ([14]; beta-lactamase positive, strain SSC 79-28, Table II, read-out: Minimal Inhibitory Concentration) | MIC ([14]; beta-lactamase positive, strain SSC 79-36, Table II, read-out: Minimal Inhibitory Concentration) | MIC ([14]; beta-lactamase positive, strain SSC 79-38, Table II, read-out: Minimal Inhibitory Concentration) | MIC ([14]; beta-lactamase positive, strain SSC 79-39, Table II, read-out: Minimal Inhibitory Concentration) | MIC ([14]; beta-lactamase positive, strain SSC 79-47, Table II, read-out: Minimal Inhibitory Concentration) | MIC ([14]; strain SSC-79-18, Table I, read-out: Minimal Inhibitory Concentration) | MIC ([14]; strain Smith, Table I, read-out: Minimal Inhibitory Concentration)
0.5 µg/mL: MIC ([14]; beta-lactamase negative, strain SSC 79-5, Table II, read-out: Minimal Inhibitory Concentration) | MIC ([14]; beta-lactamase negative, strain SSC 79-14, Table II, read-out: Minimal Inhibitory Concentration) | MIC ([14]; beta-lactamase negative, strain SSC 79-15, Table II, read-out: Minimal Inhibitory Concentration) | MIC ([14]; beta-lactamase positive, strain SSC 79-41, Table II, read-out: Minimal Inhibitory Concentration) | MIC ([14]; strain FU-79-19-2, Table I, read-out: Minimal Inhibitory Concentration) | MIC ([14]; strain SSC-80-15, Table I, read-out: Minimal Inhibitory Concentration)
1 µg/mL: MIC ([17]; strain QHC-77-2, Table I) | MIC ([17]; strain TUL-78-15, Table I)
128 µg/mL: MIC ([5]; strain TUL-78-2, Table I, read-out: Minimal Inhibitory Concentration)
4 µg/mL: MIC ([1]; strain K-77-1, Table I) | MIC ([4]; strain K-77-3, Table I) | MIC ([14]; beta-lactamase positive, strain SSC 79-24, Table II, read-out: Minimal Inhibitory Concentration)
.015 µg/mL: Minimal Inhibitory Concentration ([2]; strain SSC-78-1, Table I)
64 µg/mL: MIC ([5]; strain SSC-78-13, Table I, read-out: Minimal Inhibitory Concentration)
16 µg/mL: MIC ([1]; strain K-77-6, Table I) | MIC ([1]; strain STFD-79-17, Table I)
32 µg/mL: MIC ([5]; strain 12-4-4, Table I, read-out: Minimal Inhibitory Concentration) | MIC ([18]; strain OSU-75-1, Table I, read-out: Minimal Inhibitory Concentration) | Minimal Inhibitory Concentration ([18]; strain SM-77-15, Table I)
2.9 mg/kg: ED50 ([10]; strain Smith, subcutaneous 30 min after i.p. infection, 95% confidence limits (2.4-3.6))
0.35 mg/kg: ED50 [11]
0.03 µg/mL: MIC ([3]; strain K-81-27, Table I) | MIC ([7]; strain STFD-79-14, Table I, read-out: Minimal Inhibitory Concentration) | MIC ([12]; strain #311, Table I) | MIC ([15]; strain QHC-77-3, Table I) | MIC ([19]; strain K-81-6, Table I)
0.06 µg/mL: MIC ([12]; strain K-81-14, Table I) | MIC ([16]; strain K-81-29, Table I)
0.12 µg/mL: MIC ([8]; strain K-81-46, Table I, read-out: Minimal Inhibitory Concentration) | MIC ([14]; beta-lactamase negative, strain SSC 79-3, Table II, read-out: Minimal Inhibitory Concentration) | MIC ([14]; beta-lactamase negative, strain SSC 79-7, Table II, read-out: Minimal Inhibitory Concentration) | MIC ([14]; beta-lactamase negative, strain SSC 79-9, Table II, read-out: Minimal Inhibitory Concentration) | MIC ([14]; beta-lactamase negative, strain SSC 79-10, Table II, read-out: Minimal Inhibitory Concentration) | MIC ([14]; beta-lactamase negative, strain SSC 79-11, Table II, read-out: Minimal Inhibitory Concentration) | MIC ([14]; beta-lactamase positive, strain SSC 79-44, Table II, read-out: Minimal Inhibitory Concentration) | MIC ([17]; strain K-81-39, Table I)
0.1 mg/kg: ED50 [9]
6.1 mg/kg: ED50 ([10]; strain Fu-79-2, subcutaneous 30 min after i.p. infection, 95% confidence limits (4.4-8.4))
0.015 µg/mL: MIC ([2]; strain STFD-79-16, Table I, read-out: Minimal Inhibitory Concentration) | MIC ([4]; strain K-79-25, Table I) | MIC ([12]; strain STFD-79-20, Table I) | MIC ([13]; strain N-76-1, Table I)

CC(=O)OCC1=C(C(=O)O)N2C(=O)[C@@H](NC(=O)Cc3cccs3)[C@H]2SC1 [II]
0.5 µg/mL: MIC ([2]; read-out: Minimal Inhibitory Concentration, strain STFD-79-6, Table III) | MIC ([14]; read-out: Minimal Inhibitory Concentration, strain FU-79-19-2, Table I) | MIC ([14]; read-out: Minimal Inhibitory Concentration, strain SSC-80-15, Table I) | MIC ([14]; read-out: Minimal Inhibitory Concentration, strain SSC-80-15, Table III)
0.12 µg/mL: MIC ([14]; read-out: Minimal Inhibitory Concentration, strain FU-79-19-2, Table III) | MIC ([14]; read-out: Minimal Inhibitory Concentration, strain SSC-79-18, Table III) | MIC ([14]; read-out: Minimal Inhibitory Concentration, strain Smith, Table I)
1 µg/mL: MIC ([2]; read-out: Minimal Inhibitory Concentration, strain SSC-78-1, Table I) | MIC ([2]; read-out: Minimal Inhibitory Concentration, strain SSC-78-1, Table III) | MIC ([2]; read-out: Minimal Inhibitory Concentration, strain STFD-79-16, Table I) | MIC [3]
16 µg/mL: MIC ([18]; read-out: Minimal Inhibitory Concentration, strain OSU-75-1, Table III) | MIC ([18]; read-out: Minimal Inhibitory Concentration, strain SM-77-15, Table III)
4 µg/mL: MIC ([12]; strain #311, Table I) | MIC ([12]; strain #311, Table III) | MIC ([12]; strain STFD-79-20, Table I)
0.03 µg/mL: MIC ([2]; read-out: Minimal Inhibitory Concentration, strain AD, Table III) | MIC [20] | MIC ([14]; read-out: Minimal Inhibitory Concentration, strain Smith, Table III)
32 µg/mL: MIC ([18]; read-out: Minimal Inhibitory Concentration, strain OSU-75-1, Table I) | MIC ([18]; read-out: Minimal Inhibitory Concentration, strain SM-77-15, Table I)
> 128 µg/mL: MIC [1] | MIC [4] | MIC ([5]; ATCC27853, read-out: Minimal Inhibitory Concentration) | MIC ([5]; read-out: Minimal Inhibitory Concentration) | MIC ([7]; read-out: Minimal Inhibitory Concentration, strain STFD-79-14, Table III) | MIC ([8]; read-out: Minimal Inhibitory Concentration, strain K-79-16, Table I) | MIC ([8]; read-out: Minimal Inhibitory Concentration, strain K-79-16, Table III) | MIC [13] | MIC [16] | MIC [17]
≤ 0.03 µg/mL: MIC ([12]; strain ESS 22-31, Table III)
0.25 µg/mL: MIC ([14]; read-out: Minimal Inhibitory Concentration, strain SSC-79-18, Table I)
128 µg/mL: MIC ([7]; read-out: Minimal Inhibitory Concentration, strain STFD-79-14, Table I)
64 µg/mL: MIC ([6]; strain SSC-79-57, Table III) | MIC ([8]; read-out: Minimal Inhibitory Concentration, strain K-81-46, Table I) | MIC ([12]; strain K-81-14, Table I)
2 µg/mL: MIC ([12]; ATCC25922, strain ATCC 25922, Table III) | MIC ([12]; strain STFD-79-20, Table III) | MIC [15] | MIC [19]
